Data set [1] has as its target T1, Dihydroorotate dehydrogenase (quinone), mitochondrial (Homo sapiens, UniProt Q02127). In words: Inhibition of human N-terminal SUMO-tagged DHODH expressed in Escherichia coli BL21(DE3) at 1 uM using dihydroorotate as substrate by DCIP based microplate reader analysis relative to control.
For data set [2], the target named is T1, Dihydroorotate dehydrogenase (quinone), mitochondrial. Description: Inhibition of human N-terminal SUMO-tagged DHODH expressed in Escherichia coli BL21(DE3) at 100 nM using dihydroorotate as substrate by DCIP based microplate reader analysis relative to control.
Another data set relates to Raji. Description: Antiproliferative activity against human Raji cells assessed as cell growth inhibition measured after 96 hrs by MTT assay. In kind it is functional, cell-based. Background: Formazan colour is commonly taken as a measure of viable cells.
Data set [3] has as its target T1, Dihydroorotate dehydrogenase (quinone), mitochondrial. Description: Inhibition of human N-terminal SUMO-tagged DHODH expressed in Escherichia coli BL21(DE3) using dihydroorotate substrate by DCIP based microplate reader analysis.
A further data set concerns KG-1. In words: Antiproliferative activity against human KG-1 cells expressing human DHODH assessed as reduction in cell viability measured after 96 hrs by MTT assay. The data set is classed as functional, cell-based. Particulars: KG-1, 96 h.
Another data set concerns HCT-116. In words: Antiproliferative activity against human HCT-116 cells expressing human DHODH assessed as reduction in cell viability measured after 96 hrs by MTT assay. The data set is classed as functional, cell-based. The note with it: HCT-116, 96 h.
Data set [4] in a line: Cytotoxicity against human HCoEpiC cells expressing human DHODH assessed as reduction in cell viability measured after 96 hrs by MTT assay. In kind it is toxicity, cell-based.
The subject of a further data set is SUD4. In words: Antiproliferative activity against human SU-DHL-4 cells expressing human DHODH assessed as reduction in cell viability measured after 96 hrs by MTT assay. The note with it: SU-DHL-4, 96 h. In kind it is functional, cell-based.
A short description of data set [5]: Cytotoxicity against human HL7702 cells expressing human DHODH assessed as reduction in cell viability measured after 96 hrs by MTT assay. The data set is classed as toxicity, cell-based. Particulars: HL7702 (L02) cells expressing human DHODH.
A short description of data set [6]: Acute toxicity in BALB/c mouse assessed as decrease in body weight at 300 mg/kg, po measured for 14 days. The data set is classed as organism-based. Particulars: in vivo, 336 h, time 14 day.
The next data set deals with Kasumi 1. In words: Antiproliferative activity against human Kasumi 1 cells expressing human DHODH assessed as reduction in cell viability measured after 96 hrs by MTT assay. Particulars: Kasumi 1, 96 h. In kind it is functional, cell-based.
A further data set relates to A-375. Description: Antiproliferative activity against human A375 cells expressing human DHODH assessed as reduction in cell viability measured after 96 hrs by MTT assay. The note with it: A-375, 96 h. In kind it is functional, cell-based.
The nature of data set [7]: Toxicity in BALB/c mouse assessed as animal death at 300 mg/kg, po measured for 14 days. Particulars: in vivo, 336 h, time 14 day. The data set is classed as organism-based.
A further data set concerns U-937. Description: Antiproliferative activity against human U-937 cells expressing human DHODH assessed as reduction in cell viability measured after 96 hrs by MTT assay. The data set is classed as functional, cell-based. The note with it: U-937, 96 h.

Drawing on ChEMBL document CHEMBL5137035 (Eur J Med Chem, 2022), this text covers inhibition, IC50 and Activity for 38 molecules.

T1 sequence (Q02127 whole entry): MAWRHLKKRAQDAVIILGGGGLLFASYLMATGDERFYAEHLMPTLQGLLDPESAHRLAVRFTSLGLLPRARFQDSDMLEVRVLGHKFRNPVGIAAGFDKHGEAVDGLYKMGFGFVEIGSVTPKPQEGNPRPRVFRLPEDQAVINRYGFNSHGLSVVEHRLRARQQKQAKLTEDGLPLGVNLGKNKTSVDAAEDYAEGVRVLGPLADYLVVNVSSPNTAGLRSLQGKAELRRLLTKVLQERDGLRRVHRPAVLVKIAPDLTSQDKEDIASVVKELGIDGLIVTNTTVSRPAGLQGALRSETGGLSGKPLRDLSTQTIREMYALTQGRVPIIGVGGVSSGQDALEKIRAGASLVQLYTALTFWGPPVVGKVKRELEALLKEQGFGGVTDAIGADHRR

`COc1cccc(-c2cc(F)c(NC(=O)/C(C#N)=C(/C)O)cc2OC(C)C)c1`: the inhibition – broadly, the drop in the measured response relative to a control, in per cent – stood at 96.6% in data set [1] and 87.7% in [2]. Also, the figures for the half-maximal inhibitory concentration (IC50) (in the data set on Raji; in data set [3]) were 980 nM and 13.9 nM, respectively.
Take `CCC(C)Oc1cc(NC(=O)/C(C#N)=C(/C)O)c(F)cc1-c1ccc(F)nc1` (configuration not stated): the inhibition in [1] worked out at 89.7%; in data set [2], 52.3%.
Regarding `CCC(C)Oc1cc(NC(=O)/C(C#N)=C(/C)O)c(F)cc1-c1cccc2ccccc12` (configuration not stated), the inhibition in data set [1] is 99.7%; in data set [2], 95%. Moreover, the IC50 (as a rule, the midpoint of a concentration-inhibition curve) is 215 nM in the data set with Raji and 9.8 nM in [3].
Turning to `CCC(C)Oc1cc(NC(=O)/C(C#N)=C(/C)O)c(F)cc1-c1ccc(F)c(F)c1` (configuration not stated), the inhibition in data set [1] was determined as 97.5%; in [2] it was 80.1%. The molecule further yielded an IC50 in data set [3] of 30.4 nM.
For `CCC(C)Oc1cc(NC(=O)/C(C#N)=C(/C)O)c(F)cc1-c1ccccc1C` (configuration not stated) the same measures were 96.6%, 78.6% and 31 nM.
In the same order, the values of `CCC(C)Oc1cc(NC(=O)/C(C#N)=C(/C)O)c(F)cc1-c1cccc(Cl)c1C` (configuration not stated) are 98%, 85.3% and 22.2 nM.
Consider `COc1cccc(-c2cc(F)c(Nc3ncccc3C(=O)O)c(F)c2)c1` [ASLAN-003], for which, in the data set with Raji, the IC50 amounted to 270 nM.
With `COc1cccc(-c2cc(F)c(NC(=O)/C(C#N)=C(/C)O)cc2OCC2CCCCC2)c1`, the inhibition in [1] is 93.6%; in [2], 64%. For the same molecule, in data set [3], half-maximal inhibition (IC50) was put at 43.1 nM.
In the same order, the values of `CCC(C)Oc1cc(NC(=O)/C(C#N)=C(/C)O)c(F)cc1-c1ccccc1` (configuration not stated) are 96.9%, 80.4% and 28.9 nM.
On to `CCC(C)Oc1cc(NC(=O)/C(C#N)=C(/C)O)c(F)cc1-c1ccc2c(c1)OCO2` (configuration not stated), for which the inhibition in data set [1] was 96.9%; in [2], 83.1%. The same molecule registered an IC50 in [3] of 28.8 nM.
On to `CCC(C)Oc1cc(NC(=O)/C(C#N)=C(/C)O)c(F)cc1-c1cc(Cl)ccc1C` (configuration not stated), for which the figures for the inhibition in data set [1] and in data set [2] were 85.5% and 47.2%, respectively.
For the molecule `CCC(C)Oc1cc(NC(=O)/C(C#N)=C(/C)O)c(F)cc1-c1cc(F)cc(F)c1` (configuration not stated), the inhibition was determined as 98.8% in [1] and 85.1% in [2]. Besides, the IC50 in data set [3] was 22.6 nM.
In the same order, the values of `CCC(C)Oc1cc(NC(=O)/C(C#N)=C(/C)O)c(F)cc1-c1cc2ccccc2o1` (configuration not stated) are 97.4%, 89.9% and 12.9 nM.
For `CCC(C)Oc1cc(NC(=O)/C(C#N)=C(/C)O)c(F)cc1-c1cccc(F)c1C` (configuration not stated) the same measures were 97.8%, 82.5% and 26.1 nM.
For `CCC(C)Oc1cc(NC(=O)/C(C#N)=C(/C)O)c(F)cc1-c1ccc(F)cc1` (configuration not stated) the same measures were 96.1%, 72.5% and 37.8 nM.
For `C=C(C)COc1cc(NC(=O)/C(C#N)=C(/C)O)c(F)cc1-c1cccc(OC)c1`, the values for the inhibition in data set [1] and in data set [2] were 92.9% and 58.6%, respectively.
Regarding `CCC(C)Oc1cc(NC(=O)/C(C#N)=C(/C)O)c(F)cc1-c1ccnc(F)c1` (configuration not stated), the inhibition is 98.5% in data set [1] and 87.7% in data set [2]. Besides, half-maximal inhibition in [3] (IC50) required 20.3 nM.
For `CCC(C)Oc1cc(NC(=O)/C(C#N)=C(/C)O)c(F)cc1-c1ccccc1F` (configuration not stated) the same measures were 97.3%, 82.9% and 27.3 nM.
For `CCC(C)Oc1cc(NC(=O)/C(C#N)=C(/C)O)c(F)cc1-c1ccc(Cl)cc1` (configuration not stated) the same measures were 95.4%, 68.5% and 33.3 nM.
Consider `COc1cccc(-c2cc(F)c(NC(=O)/C(C#N)=C(/C)O)cc2OC)c1`, for which the results for the inhibition in [1] and in data set [2] were 91.8% and 57.7%, respectively. Further, half-maximal inhibition in [3] (IC50) was put at 52.1 nM.
As for `CCC(C)Oc1cc(NC(=O)/C(C#N)=C(/C)O)c(F)cc1-c1cccc(F)c1` (configuration not stated), the inhibition in data set [1] worked out at 97.2%; in [2] it was 83.6%. In data set [3], this molecule yielded an IC50 of 26.8 nM.
As for `CCC(C)Oc1cc(NC(=O)/C(C#N)=C(/C)O)c(F)cc1-c1cccc(OC)c1` (configuration not stated), the inhibition was 99.2% in data set [1] and 91.2% in [2]. Also, the half-maximal inhibitory concentration (IC50) worked out at 610 nM in the data set on Raji and 9.2 nM in [3].
Consider `CCOc1cc(NC(=O)/C(C#N)=C(/C)O)c(F)cc1-c1cccc(OC)c1`, for which the values for the inhibition in data set [1] and in data set [2] were 93.1% and 65.2%, respectively. Also, half-maximal inhibition in [3] (IC50) was put at 41.4 nM.
As to `CCC(C)Oc1cc(NC(=O)/C(C#N)=C(/C)O)c(F)cc1-c1ccc2ccccc2c1` (configuration not stated), the IC50 in the data set on KG-1 was 620 nM; in the data set on HCT-116 it was 150 nM; in the data set on SUD4 it was 160 nM; in the data set on Kasumi 1 it was 130 nM; in the data set with Raji, 18.8 nM; in the data set on A-375, 270 nM. In addition, the IC50 with U-937 amounted to 200 nM; in data set [3], 6.6 nM. Also, the IC50 at 96 h in [4] is 4710 nM; in [5], 6480 nM. Further, the Activity entry in data set [6] and in [7] was “Toxic” throughout. The inhibition was 99.8% in data set [1] and 95.6% in data set [2].
Regarding `CCC(C)Oc1cc(NC(=O)/C(C#N)=C(/C)O)c(F)cc1-c1ccc(C(F)(F)F)cc1` (configuration not stated), the inhibition in data set [1] is 77.2%; in [2], 34.1%.
`C/C(O)=C(\C#N)C(=O)Nc1ccc(C(F)(F)F)cc1` had an inhibition in [1] of 71.2%.
Turning to `COc1cccc(-c2cc(F)c(NC(=O)/C(C#N)=C(/C)O)cc2OCC(C)C)c1`, the inhibition in data set [1] stood at 96.2%; in data set [2] it was 77.6%. In [3], this molecule yielded an IC50 of 30.1 nM.
Regarding `COc1cccc(-c2cc(F)c(NC(=O)/C(C#N)=C(/C)O)cc2OCc2c(F)cccc2Cl)c1`, the inhibition in data set [1] turned out to be 79.7%; in [2], 40.3%.
For `CCC(C)Oc1cc(NC(=O)/C(C#N)=C(/C)O)c(F)cc1-c1cccc(OC(F)(F)F)c1` (configuration not stated), the inhibition in data set [1] is 99.2%; in [2], 92.4%. In addition, the IC50 stood at 130 nM in the data set with Raji and 10.9 nM in data set [3].
In the case of `CCC(C)Oc1cc(NC(=O)/C(C#N)=C(/C)O)c(F)cc1-c1ccc(OC)cc1` (configuration not stated), the inhibition in data set [1] was determined as 94.7%; in data set [2] it was 72.1%. Moreover, half-maximal inhibition in data set [3] (IC50) required 39.8 nM.
For `CCC(CC)Oc1cc(NC(=O)/C(C#N)=C(/C)O)c(F)cc1-c1cccc(OC)c1` the same measures were 98.1%, 84.6% and 16.4 nM.
`COc1cccc(-c2cc(F)c(NC(=O)/C(C#N)=C(/C)O)cc2OCc2ccccc2F)c1`: the inhibition was determined as 89.8% in [1] and 48.3% in [2].
Regarding `CCC(C)Oc1cc(NC(=O)/C(C#N)=C(/C)O)c(F)cc1-c1cccc(Cl)c1` (configuration not stated), the inhibition worked out at 98.9% in data set [1] and 87.5% in data set [2]. Also, the IC50 in [3] is 20.1 nM.
As for `C=CCOc1cc(NC(=O)/C(C#N)=C(/C)O)c(F)cc1-c1cccc(OC)c1`, the inhibition in [1] turned out to be 92.5%; in data set [2], 58.5%.
In the case of `CCC(C)Oc1cc(NC(=O)/C(C#N)=C(/C)O)c(F)cc1-c1ccccc1Cl` (configuration not stated), the inhibition is 98.8% in data set [1] and 86.3% in data set [2]. In addition, in data set [3], the IC50 stood at 21.8 nM.
For `CCCOc1cc(NC(=O)/C(C#N)=C(/C)O)c(F)cc1-c1cccc(OC)c1` the same measures were 93.6%, 68.2% and 34.6 nM.
In the case of `COc1cccc(-c2ccc(NC(=O)/C(C#N)=C(/C)O)cc2OC)c1`, the inhibition in data set [1] turned out to be 89.2%; in data set [2], 48.4%.
As to `CCCC(C)Oc1cc(NC(=O)/C(C#N)=C(/C)O)c(F)cc1-c1cccc(OC)c1` (configuration not stated), the inhibition in data set [1] amounted to 98.4%; in data set [2] it was 86.5%. Also, in data set [3], inhibition was half-maximal at 14.4 nM (IC50).
